Experimental data as given in patent US4868154A, “Stimulation of tear secretion with melanocyte stimulating hormones” (Eye Research Institute of Retina Foundation, priority 1986, dated 1989).
Where no end group is shown, it is not given here.

Assays:
[1] = system: tissue pieces in vitro; conditions: Jahn et al Eur. J. Biochem 126: 623, 1982; cited from earlier work
[2] = system: rabbits with dry eyes; assay: Tear film osmolality after topical drops in dry eye rabbits; assay type: in vivo; conditions: dry eye rabbit, topical 10 μl drops, 10^-5 M, 10^-4 M and 10^-3 M in buffer, FIGS. 2 to 4; for tear film osmolality compared with buffer alone: tear samples at 6 and 16 minutes
Procedure: In vivo examples in accordance with the invention were conducted on rabbits with dry eyes. The dry eye disorder is created by surgically closing the duct that carries fluid from the main lacrimal gland to the tear film and surgically removing the nictitans and harderian glands. This leaves intact only the accessory glands that lie on the surface of the eye. These rabbits develop increased tear film osmolality soon after the operation, a finding that is understood to be due to decreased tear production, and that is characteristic of dry eye. It is recognized that results of opthalmologic tests using rabbits has close correlation with humans and therefore the results carry over to humans
The effect on tear film osmolality of topically applied isotonic buffer solution with and without melanocyte stimulating hormones which activate the melanotropin receptors was studied in the dry eye rabbit. All test drops were ten microliters (μl) in volume. Tear samples were taken with a micropipette system, in the manner described in the article entitled "Osmolarity of Tear Microvolumes in Keratoconjunctivitis Sicca", by Gilbard et al, Arch Ophthalmol 96:677, 1978. Osmolarity was measured by freezing-point depression.
The following protocol was used to test the effects of the topically applied melanotropins. At zero time a tear sample was taken for measurement of osmolality. At one minute the test drop was instilled. At six and at sixteen minutes, tear samples were taken for osmolality measurements. Five minutes after the sixteen minute sample, the above sequence was repeated several times to test additional drops.
The following drops were instilled in the test eye and after each such instillation, test samples were taken as stated: (1) buffer solution, (2) buffer solution containing a melanocyte stimulating hormone at a low dose, (3) buffer solution, (4) buffer solution containing a melanocyte stimulating hormone at a moderate dose, (5) buffer solution, (6) buffer solution containing a melanocyte stimulating hormone at a higher dose. The melanocyte stimulating hormone may be obtained from Peninsula Laboratories,Inc., Belmont California. The results are shown in FIGS. 1 through 4 A, B, and C, where FIGS. 1 through 4 each represent results obtained from the same rabbit.

[3] = system: lacrimal gland; conditions: topical administration; Gilbard and Dartt, patent pending; cited from earlier work
[4] = system: lacrimal gland cells; conditions: Dartt et al, Am. J. Physio. 247: G502, 1984; cited from earlier work

## adrenocorticotropic hormone (SYSMEHFRWGKPVGKKRRPVKVYPNGAEDESAEAFPLEF; Corticotropin; UniProt P01189 138-176, looked up) [hormone cited from literature as stimulating protein secretion in vitro]
[1]
  protein secretion: stimulate protein secretion

## beta-melanocyte stimulating hormone [beta-MSH]
[2]
  dose dependence of the decrease in tear film osmolality: dose-dependent decrease in tear film osmolality
  tear film osmolality compared with buffer alone: lowers the tear film osmolality more effectively than buffer alone

## gamma-melanocyte stimulating hormone [gamma-MSH]
[2]
  dose dependence of the decrease in tear film osmolality: dose-dependent decrease in tear film osmolality
  tear film osmolality compared with buffer alone: lowers the tear film osmolality more effectively than buffer alone

## vasoactive intestinal peptide (HSDAVFTDNYTRLRKQMAVKKYLNSILN; ends and bridges not checked; UniProt P01282 125-152, looked up) [peptide cited from prior work as stimulating lacrimal gland fluid secretion]
[3]
  lacrimal gland fluid secretion: stimulates lacrimal gland fluid secretion
[4]
  cyclic AMP levels in lacrimal gland cells: increase cyclic AMP levels
